Reference: patent publication US20090062294A1, “HETEROARYL-SUBSTITUTED UREA MODULATORS OF FATTY ACID AMIDE HYDROLASE” (priority 2007, published 2009)
Counter-ions that a name gives are not always drawn.

What was measured:
FAAH = target: T1, FAAH (Homo sapiens, UniProt O00519); assay: Assay Method 1: FAAH assay, 3H-anandamide hydrolysis in homogenate of T84 cells or SK-N-MC cells transfected with human FAAH; type: biochemical; settings: average of results, > = solubility limit or highest concentration tested
T1 sequence (O00519 1-579): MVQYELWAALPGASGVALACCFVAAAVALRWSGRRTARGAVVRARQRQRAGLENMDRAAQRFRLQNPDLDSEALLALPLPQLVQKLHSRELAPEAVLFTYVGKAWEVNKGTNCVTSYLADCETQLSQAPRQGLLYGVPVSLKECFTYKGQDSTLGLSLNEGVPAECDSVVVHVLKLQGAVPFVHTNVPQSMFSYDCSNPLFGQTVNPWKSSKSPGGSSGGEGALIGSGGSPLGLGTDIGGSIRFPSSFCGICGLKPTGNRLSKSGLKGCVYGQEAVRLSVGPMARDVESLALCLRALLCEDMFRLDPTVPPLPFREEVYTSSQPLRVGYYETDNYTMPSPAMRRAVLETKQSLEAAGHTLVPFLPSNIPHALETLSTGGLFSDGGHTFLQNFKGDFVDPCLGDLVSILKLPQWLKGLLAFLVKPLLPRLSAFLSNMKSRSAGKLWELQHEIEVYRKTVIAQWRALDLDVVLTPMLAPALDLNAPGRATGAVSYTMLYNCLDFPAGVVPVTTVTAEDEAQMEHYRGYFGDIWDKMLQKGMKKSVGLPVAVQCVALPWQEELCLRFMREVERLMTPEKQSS
Outline: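 Hydrolysis of ^3H-anandamide (80 nM final, added last) was measured over 1 h at rt, using test compound with homogenate of T84 cells or human FAAH-transfected SK-N-MC cells. The homogenization buffer was 125 mM Tris, 1 mM EDTA, 0.02% Triton X-100, pH 9. Unbound labelled ethanolamine was passed through charcoal filters and scintillation-counted.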

rat FAAH = target: T2, rat FAAH (Rattus norvegicus, UniProt P97612); assay: Assay Method 2: FAAH assay, 3H-anandamide hydrolysis in homogenate of SK-N-MC cells transfected with rat FAAH; type: biochemical; settings: average of results, > = solubility limit or highest concentration tested
T2 sequence (P97612 1-579): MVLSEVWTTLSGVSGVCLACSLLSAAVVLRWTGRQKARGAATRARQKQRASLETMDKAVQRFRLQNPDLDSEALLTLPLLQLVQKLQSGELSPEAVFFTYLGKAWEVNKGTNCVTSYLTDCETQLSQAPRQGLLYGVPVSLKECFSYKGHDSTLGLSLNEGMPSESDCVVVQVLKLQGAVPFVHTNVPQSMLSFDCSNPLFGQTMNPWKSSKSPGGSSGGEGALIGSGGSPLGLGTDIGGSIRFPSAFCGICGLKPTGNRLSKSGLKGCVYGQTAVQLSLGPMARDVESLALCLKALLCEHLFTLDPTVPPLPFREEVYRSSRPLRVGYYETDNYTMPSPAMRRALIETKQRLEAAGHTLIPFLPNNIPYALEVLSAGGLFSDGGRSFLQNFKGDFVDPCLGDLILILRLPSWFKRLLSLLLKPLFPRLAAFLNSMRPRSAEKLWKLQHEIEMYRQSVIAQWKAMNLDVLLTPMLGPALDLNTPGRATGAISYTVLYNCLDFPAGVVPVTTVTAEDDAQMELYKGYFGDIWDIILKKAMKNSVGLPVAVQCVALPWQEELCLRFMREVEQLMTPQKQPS
Outline: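 Read-out is scintillation counting of [3H]-ethanolamine passing through activated charcoal, after 1 h at rt with 80 nM final [3H]-AEA. Enzyme source: lysate of G418-selected SK-N-MC clones expressing rat FAAH, homogenized in Tris/EDTA/glycerol/0.02% Triton buffer, pH 9.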

Structure (SMILES)	IC50 (FAAH)	IC50 (rat FAAH)
O=C(Nc1cnccn1)N1CCN(Cc2cccc(OC(F)(F)F)c2)CC1 [Example 61, 4-(3-Trifluoromethoxy-benzyl)-piperazine-1-carboxylic acid pyrazin-2-ylamide trifluoroacetic acid salt]	2300 nM	7000 nM
O=C(Nc1ccc2ccccc2n1)N1CCC(Cc2ccc3ccccc3c2)CC1 [Example 18, 4-Naphthalen-2-ylmethyl-piperidine-1-carboxylic acid quinolin-2-ylamide trifluoroacetic acid salt]	> 10000 nM	9000 nM
O=C(Nc1cnccn1)N1CCN(Cc2cc3ccccc3o2)CC1 [Example 230, 4-Benzofuran-2-ylmethyl-piperazine-1-carboxylic acid pyrazin-2-ylamide]	4000 nM	6000 nM
Cn1cc(Br)c(NC(=O)N2CCN(Cc3cccc(Oc4ccc(Cl)cc4)c3)CC2)n1 [Example 192, 4-[3-(4-Chloro-phenoxy)-benzyl]-piperazine-1-carboxylic acid (4-bromo-1-methyl-1H-pyrazol-3-yl)-amide trifluoroacetic acid salt]	4000 nM	> 10000 nM
O=C(Nc1noc2ccccc12)N1CCN(Cc2ccc(OC(F)(F)F)c(Cl)c2)CC1 [Example 107, N-1,2-Benzisoxazol-3-yl-4-[3-chloro-4-(trifluoromethoxy)benzyl]-piperazine-1-carboxamide]	80 nM	37 nM
O=C(Nc1noc2ccccc12)N1CCN(Cc2ccc3c(c2)OCO3)CC1 [Example 116, N-1,2-Benzisoxazol-3-yl-4-(1,3-benzodioxol-5-ylmethyl)piperazine-1-carboxamide]	400 nM	760 nM
O=C(Nc1ccon1)N1CCN(Cc2cccc(Oc3ccc(OC(F)(F)F)cc3)c2)CC1 [Example 134, N-Isoxazol-3-yl-4-{3-[4-(trifluoromethoxy)phenoxy]benzyl}piperazine-1-carboxamide]	10 nM	100 nM
O=C(Nc1nnn[nH]1)N1CCN(Cc2ccc3c(c2)OC(F)(F)O3)CC1 [Example 3, 4-(2,2-Difluoro-benzo[1,3]dioxol-5-ylmethyl)-piperazine-1-carboxylic acid (1H-tetrazol-5-yl)-amide trifluoroacetic acid salt]	1200 nM	9000 nM
O=C(Nc1cnccn1)N1CCN(Cc2ccc(Br)c(Br)c2)CC1 [Example 217, 4-(3,4-Dibromobenzyl)-N-pyrazin-2-ylpiperazine-1-carboxamide]	150 nM	250 nM
N#Cc1cccc(Oc2cccc(CN3CCN(C(=O)Nc4cnccn4)CC3)c2)c1 [Example 235, 4-[3-(3-Cyanophenoxy)benzyl]-N-pyrazin-2-ylpiperazine-1-carboxamide]	600 nM	6000 nM
O=C(Nc1cccc2nsnc12)N1CCN(Cc2cccc(Oc3cccc(C(F)(F)F)c3)c2)CC1 [Example 40, 4-[3-(3-Trifluoromethyl-phenoxy)-benzyl]-piperazine-1-carboxylic acid benzo[1,2,5]thiadiazol-4-ylamide trifluoroacetic acid salt]	156 nM	15 nM
O=C(Nc1nn[nH]n1)N1CCN(Cc2cccc(Oc3ccccc3Cl)c2)CC1 [Example 190, 4-[3-(2-Chlorophenoxy)benzyl]-N-2H-tetrazol-5-ylpiperazine-1-carboxamide]	3000 nM	3700 nM
O=C(Nc1ccon1)N1CCC(Cc2cccc(C(F)(F)F)c2)CC1 [Example 26, 4-(3-Trifluoromethyl-benzyl)-piperidine-1-carboxylic acid isoxazol-3-ylamide]	5000 nM	1000 nM
O=C(Nc1nn[nH]n1)N1CCN(Cc2ccc(Br)c(Br)c2)CC1 [Example 167, 4-(3,4-Dibromobenzyl)-N-1H-tetrazol-5-ylpiperazine-1-carboxamide]	340 nM	80 nM
O=C(Nc1noc2ccccc12)N1CCN(Cc2cccc(Oc3cccc(C(F)(F)F)c3)c2)CC1 [Example 51, 4-[3-(3-Trifluoromethyl-phenoxy)-benzyl]-piperazine-1-carboxylic acid benzo[d]isoxazol-3-ylamide trifluoroacetic acid salt]	28 nM	29 nM
O=C(Nc1cccc2nsnc12)N1CCN(Cc2cccc(Oc3cc(Cl)cc(Cl)c3)c2)CC1 [Example 39, 4-[3-(3,5-Dichloro-phenoxy)-benzyl]-piperazine-1-carboxylic acid benzo[1,2,5]thiadiazol-4-ylamide trifluoroacetic acid salt]	310 nM	573 nM
O=C(Nc1cc[nH]n1)N1CCN(Cc2cccc(Oc3ccc(Cl)c(Cl)c3)c2)CC1 [Example 54, 4-[3-(3,4-Dichloro-phenoxy)-benzyl]-piperazine-1-carboxylic acid (1H-pyrazol-3-yl)-amide trifluoroacetic acid salt]	370 nM	50 nM
CN(C)CC#Cc1cccc(CN2CCN(C(=O)Nc3noc4ccccc34)CC2)c1 [Example 69, N-1,2-Benzisoxazol-3-yl-4-{3-[3-(dimethylamino)prop-1-yn-1-yl]benzyl}-piperazine-1-carboxamide]	44 nM	2000 nM
O=C(Nc1cnccn1)N1CCN(Cc2ccc3c(c2)OC(F)(F)O3)CC1 [Example 210, 4-[(2,2-Difluoro-1,3-benzodioxol-5-yl)methyl]-N-pyrazin-2-ylpiperazine-1-carboxamide]	1750 nM	1160 nM
O=C(Nc1cnccn1)N1CCN(Cc2cccc(Oc3ccc(F)c(F)c3)c2)CC1 [Example 231, 4-[3-(3,4-Difluorophenoxy)benzyl]-N-pyrazin-2-ylpiperazine-1-carboxamide]	130 nM	3600 nM
N#CCc1ccccc1C#Cc1cccc(CN2CCN(C(=O)Nc3noc4ccccc34)CC2)c1 [Example 92, N-1,2-Benzisoxazol-3-yl-4-(3-{[2-(cyanomethyl)phenyl]ethynyl}-benzyl)piperazine-1-carboxamide]	27 nM	262 nM
O=C(Nc1ccon1)N1CCN(Cc2cccc(Oc3ccc(Br)cc3)c2)CC1 [Example 145, 4-[3-(4-Bromophenoxy)benzyl]-N-isoxazol-3-ylpiperazine-1-carboxamide]	16 nM	430 nM
O=C(Nc1noc2ccccc12)N1CCN(Cc2cccc(Oc3ccccc3)c2)CC1 [Example 110, N-1,2-Benzisoxazol-3-yl-4-(3-phenoxybenzyl)piperazine-1-carboxamide]	45 nM	42 nM
COc1ccccc1C#Cc1cccc(CN2CCN(C(=O)Nc3noc4ccccc34)CC2)c1 [Example 65, N-1,2-Benzisoxazol-3-yl-4-{3-[(2-methoxyphenyl)-ethynyl]-benzyl}-piperazine-1-carboxamide]	395 nM	300 nM
O=C(Nc1cc(-c2ccccc2)[nH]n1)N1CCN(Cc2cccc(Oc3ccc(Cl)cc3)c2)CC1 [Example 244, 4-[3-(4-Chlorophenoxy)benzyl]-N-(5-phenyl-1H-pyrazol-3-yl)piperazine-1-carboxamide trifluoroacetate salt]	1400 nM	7000 nM
O=C(Nc1nn[nH]n1)N1CCN(Cc2cc3ccccc3s2)CC1 [Example 183, 4-Benzo[b]thiophen-2-ylmethyl-piperazine-1-carboxylic acid (2H-tetrazol-5-yl)-amide]	1400 nM	430 nM
Cc1cnc(NC(=O)N2CCN(Cc3cccc(C#Cc4ccccc4Cl)c3)CC2)cn1 [Example 80, 4-{3-[(2-Chlorophenyl)ethynyl]benzyl}-N-(5-methylpyrazin-2-yl)piperazine-1-carboxamide]	5000 nM	4000 nM
O=C(Nc1ccon1)N1CCC(Cc2ccc3ccccc3c2)CC1 [Example 11, 4-Naphthalen-2-ylmethyl-piperidine-1-carboxylic acid isoxazol-3-ylamide]	1000 nM	170 nM
